This note sets out measurements from ChEMBL document CHEMBL3407359, “(3Z)-3-(2-[4-(aryl)-1,3-thiazol-2-yl]hydrazin-1-ylidene)-2,3-dihydro-1H-indol-2-one derivatives as dual inhibitors of HIV-1 reverse transcriptase” (Eur J Med Chem, 2015).

Data set [1] deals with Human immunodeficiency virus type 1 reverse transcriptase (Human immunodeficiency virus 1) (UniProt Q72547). As to the kind of experiment: Specificity index, ratio of IC50 for HIV1 reverse transcriptase-associated DNA polymerase-independent RNase H activity to IC50 for HIV1 reverse transcriptase-associated RNA-dependent DNA polymerase activity.
In data set [2] the target is T1, Human immunodeficiency virus type 1 reverse transcriptase (Human immunodeficiency virus 1, UniProt Q72547). As to the kind of experiment: Inhibition of HIV1 reverse transcriptase-associated RNA-dependent DNA polymerase activity after 30 mins.
Data set [3] deals with T1, Human immunodeficiency virus type 1 reverse transcriptase. As to the kind of experiment: Inhibition of HIV1 reverse transcriptase-associated DNA polymerase-independent RNase H activity after 1 hr.
A short description of data set [4]: Metal chelating activity of the compound assessed as magnesium ion complex formation by UV-vis spectrometric analysis. It counts as physicochemical.
Data set [5] deals with T2, Human immunodeficiency virus type 1 reverse transcriptase (Human immunodeficiency virus 1, UniProt Q72547, Y181C).
Description: Inhibition of HIV1 reverse transcriptase Tyr181Cys mutant-associated RNA-dependent DNA polymerase activity after 30 mins
Data set [6] deals with T3, Human immunodeficiency virus type 1 reverse transcriptase (Human immunodeficiency virus 1, UniProt Q72547, K103N).
Description: Inhibition of HIV1 reverse transcriptase Lys103Asn mutant-associated DNA polymerase-independent RNase H activity after 1 hr
Data set [7] has as its target T2, Human immunodeficiency virus type 1 reverse transcriptase. This is another data set of the same source.
Description: Inhibition of HIV1 reverse transcriptase Tyr181Cys mutant-associated DNA polymerase-independent RNase H activity after 1 hr
The target of data set [8] is T3, Human immunodeficiency virus type 1 reverse transcriptase. The source holds these as a separate data set.
Description: Inhibition of HIV1 reverse transcriptase Lys103Asn mutant-associated RNA-dependent DNA polymerase activity after 30 mins

What is called IC50 is the concentration at which inhibition is half-maximal. Low readings indicate greater potency, high ones weaker potency. On to `O=C1Nc2ccccc2/C1=N/Nc1nc(-c2ccc(Br)cc2)cs1`, for which the Ratio IC50 in data set [1] worked out at 0.18. The 50% inhibitory concentration (IC50) in data set [2] turned out to be 81 µM; in data set [3], 14.9 µM.
Turning to `COc1ccc(-c2csc(N/N=C3\C(=O)Nc4ccccc43)n2)cc1`, the Ratio IC50 in data set [1] came to 0.18. The IC50 in data set [2] is 26 µM; in data set [3] it was 4.7 µM.
With `Cc1ccc(-c2csc(N/N=C3\C(=O)Nc4ccccc43)n2)cc1`, the Ratio IC50 in data set [1] worked out at 0.2. Besides, the half-inhibitory concentration (IC50) is 45 µM in data set [2] and 9 µM in data set [3].
Regarding `O=C1Nc2ccccc2/C1=N/Nc1nc(-c2ccc(O)c(O)c2)cs1`, the Activity entry in data set [4] is on record as “Not Active”. In data set [1], the Ratio IC50 came to 3.5. Further, the half-maximal inhibitory concentration (IC50) in data set [2] amounted to 0.9 µM; in data set [3], 3.2 µM.
With `O=C1Nc2ccccc2/C1=N/Nc1nc(-c2ccc(-c3ccccc3)cc2)cs1`, the Activity entry in data set [4] is recorded as “Not Active”. Further, the Ratio IC50 in data set [1] was 0.11. The 50% inhibitory concentration (IC50) worked out at 22 µM in data set [2]; 15.4 µM in data set [5]; 2.5 µM in data set [3]; 3.42 µM in data set [6]; 2.7 µM in data set [7]; 18.8 µM in data set [8].
For the compound `O=C1Nc2ccccc2/C1=N/Nc1nc(-c2ccc(Cl)cc2)cs1`, the Ratio IC50 in data set [1] is 0.53. Further, the concentration for half-maximal inhibition (IC50) in data set [2] amounted to 20 µM; in data set [3] it was 10.6 µM.
Consider `O=C1Nc2ccccc2/C1=N/Nc1nc(-c2ccc(F)cc2)cs1`, for which, in data set [1], the Ratio IC50 worked out at 0.26. In addition, the results for the half-inhibitory concentration (IC50) in data set [2] and in data set [3] were 23.9 µM and 6.4 µM, respectively.
In the case of `O=C1Nc2ccccc2/C1=N/Nc1nc(-c2ccc(F)cc2F)cs1`, the Ratio IC50 in data set [1] came out at 0.14. The IC50 in data set [2] turned out to be 18.5 µM; in data set [3] it was 2.6 µM.
The like results for `O=C1Nc2ccccc2/C1=N/Nc1nc(-c2ccc([N+](=O)[O-])cc2)cs1` were, in that order, 0.08, 34 µM and 2.9 µM.
Turning to `O=C1Nc2ccccc2/C1=N/Nc1nc(-c2cccc([N+](=O)[O-])c2)cs1`, the Ratio IC50 in data set [1] was 0.21. Besides, the IC50 in data set [2] is 13 µM; in data set [3], 2.8 µM.
As for `O=C1Nc2ccccc2/C1=N/Nc1nc(-c2ccc(Cl)cc2Cl)cs1`, the Ratio IC50 in data set [1] is 0.2. The IC50 came to 19.5 µM in data set [2] and 3.9 µM in data set [3].
Consider `O=C1Nc2ccccc2/C1=N/Nc1nc(-c2ccccc2)cs1`, for which the Ratio IC50 in data set [1] is 1.3. For the same compound, the IC50 in data set [2] amounted to 71.6 µM; in data set [3], 100 µM.
